Measured values from US11957759B1, “Rapidly accelerated fibrosarcoma (RAF) degrading compounds and associated methods of use” (Arvinas Operations, Inc., priority 2022, dated 2024).

Experiments:
B-RAF V600E = target: T1, B-RAF V600E (Homo sapiens, UniProt P15056, V600E); assay: Target protein degradation, assay A: T-Rex 293 cells, HA-B-RAF_V600E, 96 well format; assay type: cell-based; conditions: T-Rex 293 HA-B-RAF_V600E cells, 24 hours, Examples 1-82
T1 construct: expressed in transfected cells; host or cells: T-Rex 293 cells (Invitrogen #R71007)
Procedure: A. T-Rex 293 Cells (96 well format)
T-Rex 293 cells were purchased from Invitrogen (#R71007), and stably transfected with a pcDNA4/TO_HA-B-RAF_V600E construct, using 400 ug Zeocin for selection. V600e cells are plated in ulbecco's Modified Eagle Medium (DMEM; Gibco #11965118) containing 10% fetal bovine serum (FBS; Gibco #16000044) and 1 ng/mL doxycycline (Selleckchem #4163) at a density of 5,000 cells/well in 50 μl on poly-D-lysine (PDL) coated, black clear bottom 96-well plates (Corning #354640) and incubated for 24 hours at 37° C. with 5% CO2. The following day 50 ul of tested compound was added at 2× concentration in DMEM with a final concentration ranging from 1 μM to 0.1 nM in 0.1% dimethylsulfoxide (DMSO), and incubated for 24 hours at 37° C. with 5% CO2. At the end of the experimental treatment, the media was flicked off and cells washed once with phosphate-buffered saline (PBS)++(PBS with CaCl and MgCl) and gently replacing with 200 μl PBS++ per well. The PBS++ was removed and 50 uL 4% paraformaldehyde (PFA; EMS #15710) in PBS++ was added, and incubate at room temperature for 15 minutes. Cells were washed once with PBS++ and 50 uL 0.1% Triton X-100 (Fisher #BP151-500) in PBS++ was added. Plate was incubate for 5 minutes at room temperature. Cells were was once with PBS++. Cells were blocked with 100 uL Licor blocking buffer (Licor #927-50000) for 1 hour at room temperature. Next, 50 uL of HA antibody (CST #3724) at 1:1000 in Licor blocking buffer was added, and the plate icubate overnight at 4° C. The plates were parafilmed to prevent evaporation. Plate was washed three times with 200 uL PBS++. Fifty microliters of HCS secondary antibody solution [1:1000 Hoechst (Invitrogen #H3570), 1:1000 phalloidin (Invitrogen #A22287) and 1:5000 Alexa fluor (Invitrogen #A11008)] was added and incubated for 1 hour. Plate was wash three times with 200 uL PBS++, and imaged on a high content reader (ImageXpress Micro XLS, Molecular Devices).
(§1) The concentration of an exemplary compound that leads to half maximal degradation (DC50) as well as the maximum degradation observed (Dmax, conventionally expressed as a percentage of control) is shown below in Table 2.

B-RAF G466V = target: T2, B-RAF G466V (Homo sapiens, UniProt P15056, G466V); assay: Target protein degradation, assay B: T-Rex 293 cells, HA-B-RAF_G466V, 96 well format; assay type: cell-based; conditions: T-Rex 293 HA-B-RAF_G466V cells, 24 hours, Examples 1-82
T2 construct: expressed in transfected cells; host or cells: T-Rex 293 cells (Invitrogen #R71007)
Procedure: B. T-Rex 293 Cells (96 Well Format)
T-Rex 293 cells were purchased from Invitrogen (#R71007), and stably transfected with a pcDNA4/TO_HA-B-RAF_G466V construct, using 400 ug Zeocin for selection. G466V cells are plated in ulbecco's Modified Eagle Medium (DMEM; Gibco #11965118) containing 10% fetal bovine serum (FBS; Gibco #16000044) and 0.75 ng/mL doxycycline (Selleckchem #4163) at a density of 5,000 cells/well in 50 μl on poly-D-lysine (PDL) coated, black clear bottom 96-well plates (Corning #354640) and incubated for 24 hours at 37° C. with 5% CO2. The following day 50 ul of tested compound was added at 2× concentration in DMEM with a final concentration ranging from 30 nM to 3 pM in 0.1% dimethylsulfoxide (DMSO), and incubated for 24 hours at 37° C. with 5% CO2. At the end of the experimental treatment, the media was flicked off and cells washed once with phosphate-buffered saline (PBS)++(PBS with CaCl and MgCl) and gently replacing with 200 μl PBS++ per well. The PBS++ was removed and 50 uL 4% paraformaldehyde (PFA; EMS #15710) in PBS++ was added, and incubate at room temperature for 15 minutes. Cells were washed once with PBS++ and 50 uL 0.1% Triton X-100 (Fisher #BP151-500) in PBS++ was added. Plate was incubate for 5 minutes at room temperature. Cells were was once with PBS++. Cells were blocked with 100 uL Licor blocking buffer (Licor #927-50000) for 1 hour at room temperature. Next, 50 uL of HA antibody (CST #3724) at 1:1000 in Licor blocking buffer was added, and the plate icubate overnight at 4° C. The plates were parafilmed to prevent evaporation. Plate was washed three times with 200 uL PBS++. Fifty microliters of HCS secondary antibody solution [1:1000 Hoechst (Invitrogen #H3570), 1:1000 phalloidin (Invitrogen #A22287) and 1:5000 Alexa fluor (Invitrogen #A11008)] was added and incubated for 1 hour. Plate was wash three times with 200 uL PBS++, and imaged on a high content reader (ImageXpress Micro XLS, Molecular Devices).
as §1

T2 sequence (P15056 whole entry G466V): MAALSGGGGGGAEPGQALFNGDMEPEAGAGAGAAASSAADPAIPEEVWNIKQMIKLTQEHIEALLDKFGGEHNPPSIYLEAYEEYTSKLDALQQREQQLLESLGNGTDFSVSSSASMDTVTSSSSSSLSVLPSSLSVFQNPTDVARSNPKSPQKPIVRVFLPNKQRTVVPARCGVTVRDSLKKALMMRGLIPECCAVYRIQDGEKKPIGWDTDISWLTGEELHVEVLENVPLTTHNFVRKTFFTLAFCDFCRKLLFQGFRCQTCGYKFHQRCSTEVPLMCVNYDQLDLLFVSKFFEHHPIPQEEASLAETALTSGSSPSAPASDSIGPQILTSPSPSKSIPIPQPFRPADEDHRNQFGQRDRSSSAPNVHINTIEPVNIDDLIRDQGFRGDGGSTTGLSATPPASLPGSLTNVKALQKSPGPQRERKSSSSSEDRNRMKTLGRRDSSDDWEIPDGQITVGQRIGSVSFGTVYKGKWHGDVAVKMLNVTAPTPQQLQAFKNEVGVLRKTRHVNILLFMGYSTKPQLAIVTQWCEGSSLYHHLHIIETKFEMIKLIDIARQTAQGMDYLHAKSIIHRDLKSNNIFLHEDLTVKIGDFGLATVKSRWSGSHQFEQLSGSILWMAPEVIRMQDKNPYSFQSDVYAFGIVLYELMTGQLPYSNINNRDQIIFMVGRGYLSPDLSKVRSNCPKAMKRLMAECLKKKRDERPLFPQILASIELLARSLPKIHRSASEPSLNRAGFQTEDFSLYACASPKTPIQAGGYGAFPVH
T1 sequence (P15056 whole entry V600E): as the sequence (P15056 whole entry G466V) above, with V466G, V600E counted along it

N#Cc1c(NS(=O)(=O)N2CC[C@@H](F)C2)ccc(F)c1Oc1ccc2ncn(-c3ccc(N4CCN(CC5CCN(c6ccc(NC7CCC(=O)NC7=O)cc6F)CC5)CC4)cc3)c(=O)c2c1 (stereo partly drawn) [Example 11, (3R)-N-(2-cyano-3-{[3-(4-{4-[(1-{4-[(2,6-dioxopiperidin-3-yl)amino]-2-fluorophenyl}piperidin-4-yl)methyl]piperazin-1-yl}phenyl)-4-oxo-3,4-dihydroquinazolin-6-yl]oxy}-4-fluorophenyl)-3-fluoropyrrolidine-1-sulfonamide] was tested, and the DC50 (B-RAF V600E) was 5 to 50 nM, the Dmax (B-RAF V600E) was 35 to 70% and the DC50 (B-RAF G466V) was > 30 nM.
N#Cc1c(NS(=O)(=O)N2CC[C@@H](F)C2)ccc(F)c1Oc1ccc2ncn(-c3ccc(N4CCN(c5ccc6c(c5)C(=O)N(C5CCC(=O)NC5=O)C6=O)CC4)cc3)c(=O)c2c1 (stereo partly drawn) [Example 71, (3R)-N-(2-cyano-3-{[3-(4-{4-[2-(2,6-dioxopiperidin-3-yl)-1,3-dioxo-2,3-dihydro-1H-isoindol-5-yl]piperazin-1-yl}phenyl)-4-oxo-3,4-dihydroquinazolin-6-yl]oxy}-4-fluorophenyl)-3-fluoropyrrolidine-1-sulfonamide] was tested, and the DC50 (B-RAF V600E) was > 500 nM and the DC50 (B-RAF G466V) was > 30 nM.
With N#Cc1c(NS(=O)(=O)N2CC[C@@H](F)C2)ccc(F)c1Oc1ccc2ncn(-c3ccc(N4CCN(C(=O)CC5(O)CCN(c6ccc(C7CCC(=O)NC7=O)cc6F)CC5)CC4)cc3)c(=O)c2c1 (stereo partly drawn) [Example 66, (3R)-N-{2-cyano-3-[(3-(4-[4-(2-{1-[4-(2,6-dioxopiperidin-3-yl)-2-fluorophenyl]-4-hydroxypiperidin-4-yl}acetyl)piperazin-1-yl]phenyl}-4-oxo-3,4-dihydroquinazolin-6-yl)oxy]-4-fluorophenyl}-3-fluoropyrrolidine-1-sulfonamide] the DC50 (B-RAF V600E) was 50 to 500 nM, the Dmax (B-RAF V600E) was 35 to 70% and the DC50 (B-RAF G466V) was > 30 nM.
For N#Cc1c(NS(=O)(=O)N2CC[C@@H](F)C2)ccc(F)c1Oc1ccc2ncn(-c3ccc(N4CCC(CN5CCC(c6ccc7c(c6F)CN(C6CCC(=O)NC6=O)C7=O)CC5)CC4)cc3)c(=O)c2c1 (stereo partly drawn) [Example 79, (3R)—N-{2-cyano-3-[(3-{4-[4-({4-[2-(2,6-dioxopiperidin-3-yl)-4-fluoro-1-oxo-2,3-dihydro-1H-isoindol-5-yl]piperidin-1-yl}methyl)piperidin-1-yl]phenyl}-4-oxo-3,4-dihydroquinazolin-6-yl)oxy]-4-fluorophenyl}-3-fluoropyrrolidine-1-sulfonamide], the DC50 (B-RAF V600E) was 50 to 500 nM, the Dmax (B-RAF V600E) was 35 to 70% and the DC50 (B-RAF G466V) was ≤ 1 nM. It also gave a Dmax (B-RAF G466V) of 35 to 70%.
Work on N#Cc1c(NS(=O)(=O)N2CC[C@@H](F)C2)ccc(F)c1Oc1ccc2ncn(-c3ccc(N4CCN(CC5CN(c6ccc7c(c6)CN([C@H]6CCC(=O)NC6=O)C7=O)C5)CC4)cc3)c(=O)c2c1 [Example 76, (3R)—N-(2-cyano-3-{[3-(4-{4-[(1-{2-[(3S)-2,6-dioxopiperidin-3-yl]-1-oxo-2,3-dihydro-1H-isoindol-5-yl}azetidin-3-yl)methyl]piperazin-1-yl}phenyl)-4-oxo-3,4-dihydroquinazolin-6-yl]oxy}-4-fluorophenyl)-3-fluoropyrrolidine-1-sulfonamide] yielded a DC50 (B-RAF V600E) of 5 to 50 nM, a Dmax (B-RAF V600E) of 35 to 70% and a DC50 (B-RAF G466V) of 1 to 10 nM. The Dmax (B-RAF G466V) was ≤ 35%.
In the case of N#Cc1c(NS(=O)(=O)N2CC[C@@H](F)C2)ccc(F)c1Oc1ccc2ncn(-c3ccc(N4CCN(CC5CCN(c6ccc(C7CCC(=O)NC7=O)cc6F)CC5)CC4)cc3)c(=O)c2c1 (stereo partly drawn) [Example 13, (3R)-N-{2-cyano-3-[(3-{4-[4-({1-[4-(2,6-dioxopiperidin-3-yl)-2-fluorophenyl]piperidin-4-yl}methyl)piperazin-1-yl]phenyl}-4-oxo-3,4-dihydroquinazolin-6-yl)oxy]-4-fluorophenyl}-3-fluoropyrrolidine-1-sulfonamide], the DC50 (B-RAF V600E) is reported as 5 to 50 nM, the Dmax (B-RAF V600E) is reported as 35 to 70% and the DC50 (B-RAF G466V) is reported as > 30 nM.
For N#Cc1c(NS(=O)(=O)N2CC[C@@H](F)C2)ccc(F)c1Oc1ccc2ncn(-c3cnc(N4CCN(c5ccc6c(c5)C(=O)N(C5CCC(=O)NC5=O)C6=O)CC4)nc3)c(=O)c2c1 (stereo partly drawn) [Example 31, (3R)-N-(2-cyano-3-{[3-(2-{4-[2-(2,6-dioxopiperidin-3-yl)-1,3-dioxo-2,3-dihydro-1H-isoindol-5-yl]piperazin-1-yl}pyrimidin-5-yl)-4-oxo-3,4-dihydroquinazolin-6-yl]oxy}-4-fluorophenyl)-3-fluoropyrrolidine-1-sulfonamide], the DC50 (B-RAF V600E) was > 500 nM and the DC50 (B-RAF G466V) was > 30 nM.
For N#Cc1c(NS(=O)(=O)N2CC[C@@H](F)C2)ccc(F)c1Oc1ccc2ncn(-c3ccc(N4CCN(CC5CCN(c6ccc(C7CCC(=O)NC7=O)cc6F)CC5)CC4)nc3)c(=O)c2c1 (stereo partly drawn) [Example 14, (3R)-N-{2-cyano-3-[(3-{6-[4-({1[4-(2,6-dioxopiperidin-3-yl)-2-fluorophenyl]piperidin-4-yl}methyl)piperazin-1-yl]pyridin-3-yl}-4-oxo-3,4-dihydroquinazolin-6-yl)oxy]-4-fluorophenyl}-3-fluoropyrrolidine-1-sulfonamide], the DC50 (B-RAF V600E) was 50 to 500 nM, the Dmax (B-RAF V600E) was 35 to 70% and the DC50 (B-RAF G466V) was > 30 nM.
N#Cc1c(NS(=O)(=O)N2CC[C@@H](F)C2)ccc(F)c1Oc1ccc2ncn(-c3ccc(N4CCN(C(=O)CC5(O)CCN(c6ccc7c(c6)CN([C@H]6CCC(=O)NC6=O)C7=O)CC5)CC4)cc3)c(=O)c2c1 [Example 4, (3R)—N-(2-cyano-3-{[3-(4-{4-[2-(1-{2-[(3S)-2,6-dioxopiperidin-3-yl]-1-oxo-2,3-dihydro-1H-isoindol-5-yl}-4-hydroxypiperidin-4-yl)acetyl]piperazin-1-yl}phenyl)-4-oxo-3,4-dihydroquinazolin-6-yl]oxy}-4-fluorophenyl)-3-fluoropyrrolidine-1-sulfonamide] showed a DC50 (B-RAF V600E) of 5 to 50 nM, a Dmax (B-RAF V600E) of 35 to 70% and a DC50 (B-RAF G466V) of 1 to 10 nM. The Dmax (B-RAF G466V) was 35 to 70%.
N#Cc1c(NS(=O)(=O)N2CC[C@@H](F)C2)ccc(F)c1Oc1ccc2ncn(-c3ccc(N4CCN(CC5CCN(c6ccc(F)c(C(=O)NC7CCC(=O)NC7=O)c6)CC5)CC4)cc3)c(=O)c2c1 (stereo partly drawn) [Example 15, 5-(4-{[4-(4-{6-[2-cyano-6-fluoro-3-({[(3R)-3-fluoropyrrolidin-1-yl]sulfonyl}amino)phenoxy]-4-oxo-3,4-dihydroquinazolin-3-yl}phenyl)piperazin-1-yl]methyl}piperidin-1-yl)-N-(2,6-dioxopiperidin-3-yl)-2-fluorobenzamide] was tested, and the DC50 (B-RAF V600E) was > 500 nM and the DC50 (B-RAF G466V) was > 30 nM.
With N#Cc1c(NS(=O)(=O)N2CC[C@@H](F)C2)ccc(F)c1Oc1ccc2ncn(-c3ccc(N4CCN(CCN5CCN(c6ccc7c(c6)CN(C6CCC(=O)NC6=O)C7=O)CC5)CC4)cc3)c(=O)c2c1 (stereo partly drawn) [Example 10, (3R)-N-{2-cyano-3-[(3-(4-[4-(2-{4-[2-(2,6-dioxopiperidin-3-yl)-1-oxo-2,3-dihydro-1H-isoindol-5-yl]piperazin-1-yl}ethyl)piperazin-1-yl]phenyl}-4-oxo-3,4-dihydroquinazolin-6-yl)oxy]-4-fluorophenyl}-3-fluoropyrrolidine-1-sulfonamide] the DC50 (B-RAF V600E) was > 500 nM and the DC50 (B-RAF G466V) was > 30 nM.
